Laboratory results taken from US11401277B2, “Anti-bacterial heterocyclic compounds and their synthesis” (Bugworks Research, Inc., priority 2017, dated 2022).
Values after ≈ are worked out from the molar mass of the structure shown. Values joined by “and” are separate entries in the source; they are usually repeats but may differ in a detail not shown here. Equal entries are not always repeated.

Key:
E. coli [ATCC25922] = experiment: Urinary Tract Infection Rat Model (kidneys, bladder); conditions: 30 mg/kg, i.v. bolus
E. coli clinical strains = experiment: Susceptibility (MIC50 and MIC90 determination) studies, clinical strains; assay type: cell-based; conditions: CLSI
[1] = system: P. aeruginosa [ATCC27853]; experiment: Neutropenic Lung Infection Model in Rat; assay type: in vivo; conditions: 30 mg/kg, i.v. bolus
Protocol: Animals were placed into an induction chamber and anaesthesia was induced by exposing the animals to 3-5% Isoflurane in an oxygen flow set at approximately (˜) 1 liter per minute (LPM). […] A gentle mixing of inoculum between two animals was followed for uniform distribution.
Meropenem was formulated in saline.
Entire Lung was aseptically isolated, weighed and placed into 1 mL of sterile CSDB broth, and homogenized (Omni Tip (220 V hand held)). Serial ten-fold dilutions of the lungs homogenates were prepared in sterile CSD broth and 0.05 mL of four dilutions for each tissue was plated onto CSDA agar plates. Bacterial colonies were enumerated following overnight incubation at 37° C. Bacterial densities were estimated as Log10 CFU/g lung. The Mean±SD Log10 CFU/g lung was estimated in each group.

[2] = system: E. cloacae clinical strains; experiment: Susceptibility (MIC50 and MIC90 determination) studies, clinical strains; assay type: cell-based; conditions: CLSI
[3] = system: K. pneumoniae clinical strains; experiment: as above; assay type: cell-based; conditions: CLSI
[4] = system: P. aurigenosa clinical strains; experiment: as above; assay type: cell-based; conditions: CLSI
[5] = system: A. baumanni clinical strains; experiment: as above; assay type: cell-based; conditions: CLSI
E. coli topoisomerase IV = E. coli topoisomerase IV (Escherichia coli, UniProt P0AFI2+P20083); experiment: biochemical; conditions: gel based decatenation assay; read-out: E. coli Topo IV IC50
Chain of E. coli topoisomerase IV (P20083 whole entry): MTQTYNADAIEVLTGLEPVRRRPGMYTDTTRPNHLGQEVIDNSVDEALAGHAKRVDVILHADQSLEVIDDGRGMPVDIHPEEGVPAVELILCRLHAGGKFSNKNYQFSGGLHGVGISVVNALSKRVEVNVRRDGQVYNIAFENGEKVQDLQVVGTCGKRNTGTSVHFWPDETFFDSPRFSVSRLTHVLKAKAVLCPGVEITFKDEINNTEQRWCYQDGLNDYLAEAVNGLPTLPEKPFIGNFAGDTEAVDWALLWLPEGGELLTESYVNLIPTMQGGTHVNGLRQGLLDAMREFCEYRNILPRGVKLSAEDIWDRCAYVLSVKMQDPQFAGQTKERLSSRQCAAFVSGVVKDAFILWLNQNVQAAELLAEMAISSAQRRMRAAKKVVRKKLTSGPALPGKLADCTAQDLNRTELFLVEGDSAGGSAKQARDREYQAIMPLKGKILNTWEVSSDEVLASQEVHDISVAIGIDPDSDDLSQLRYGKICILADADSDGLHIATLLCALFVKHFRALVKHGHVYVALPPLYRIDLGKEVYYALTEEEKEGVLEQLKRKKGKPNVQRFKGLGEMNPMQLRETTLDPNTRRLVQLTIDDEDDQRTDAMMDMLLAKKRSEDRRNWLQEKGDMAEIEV
Chain of E. coli topoisomerase IV (P0AFI2 whole entry): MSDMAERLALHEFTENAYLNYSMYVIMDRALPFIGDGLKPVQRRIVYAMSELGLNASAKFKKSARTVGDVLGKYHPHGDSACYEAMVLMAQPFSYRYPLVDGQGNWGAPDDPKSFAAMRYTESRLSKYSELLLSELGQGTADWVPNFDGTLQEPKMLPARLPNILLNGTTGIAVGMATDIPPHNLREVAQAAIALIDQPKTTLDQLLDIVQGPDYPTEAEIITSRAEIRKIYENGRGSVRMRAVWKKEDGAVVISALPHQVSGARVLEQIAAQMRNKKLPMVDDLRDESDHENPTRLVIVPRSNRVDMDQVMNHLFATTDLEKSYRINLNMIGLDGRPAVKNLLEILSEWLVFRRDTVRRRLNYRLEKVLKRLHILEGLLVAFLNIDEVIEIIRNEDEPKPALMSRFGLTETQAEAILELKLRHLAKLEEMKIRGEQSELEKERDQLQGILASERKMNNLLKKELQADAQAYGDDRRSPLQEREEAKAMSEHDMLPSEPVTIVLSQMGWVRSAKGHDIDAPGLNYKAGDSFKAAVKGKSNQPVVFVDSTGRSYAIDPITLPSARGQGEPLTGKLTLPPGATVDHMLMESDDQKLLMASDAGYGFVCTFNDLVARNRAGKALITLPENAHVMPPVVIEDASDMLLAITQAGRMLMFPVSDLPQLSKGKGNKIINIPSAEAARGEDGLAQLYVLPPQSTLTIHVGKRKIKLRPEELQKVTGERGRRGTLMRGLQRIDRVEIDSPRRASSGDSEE

hERG potassium channel = biological target: T1, hERG potassium channel (Homo sapiens, UniProt Q12809); experiment: hERG inhibition assay, QPatch HTX automated electrophysiology; assay type: cell-based; conditions: CHO cell line expressing hERG; whole-cell patch clamp, room temperature
T1 construct: Chinese Hamster Ovary cell line stably expressing the full-length hERG potassium channel; expressed in transfected cells
T1 sequence (Q12809 whole entry): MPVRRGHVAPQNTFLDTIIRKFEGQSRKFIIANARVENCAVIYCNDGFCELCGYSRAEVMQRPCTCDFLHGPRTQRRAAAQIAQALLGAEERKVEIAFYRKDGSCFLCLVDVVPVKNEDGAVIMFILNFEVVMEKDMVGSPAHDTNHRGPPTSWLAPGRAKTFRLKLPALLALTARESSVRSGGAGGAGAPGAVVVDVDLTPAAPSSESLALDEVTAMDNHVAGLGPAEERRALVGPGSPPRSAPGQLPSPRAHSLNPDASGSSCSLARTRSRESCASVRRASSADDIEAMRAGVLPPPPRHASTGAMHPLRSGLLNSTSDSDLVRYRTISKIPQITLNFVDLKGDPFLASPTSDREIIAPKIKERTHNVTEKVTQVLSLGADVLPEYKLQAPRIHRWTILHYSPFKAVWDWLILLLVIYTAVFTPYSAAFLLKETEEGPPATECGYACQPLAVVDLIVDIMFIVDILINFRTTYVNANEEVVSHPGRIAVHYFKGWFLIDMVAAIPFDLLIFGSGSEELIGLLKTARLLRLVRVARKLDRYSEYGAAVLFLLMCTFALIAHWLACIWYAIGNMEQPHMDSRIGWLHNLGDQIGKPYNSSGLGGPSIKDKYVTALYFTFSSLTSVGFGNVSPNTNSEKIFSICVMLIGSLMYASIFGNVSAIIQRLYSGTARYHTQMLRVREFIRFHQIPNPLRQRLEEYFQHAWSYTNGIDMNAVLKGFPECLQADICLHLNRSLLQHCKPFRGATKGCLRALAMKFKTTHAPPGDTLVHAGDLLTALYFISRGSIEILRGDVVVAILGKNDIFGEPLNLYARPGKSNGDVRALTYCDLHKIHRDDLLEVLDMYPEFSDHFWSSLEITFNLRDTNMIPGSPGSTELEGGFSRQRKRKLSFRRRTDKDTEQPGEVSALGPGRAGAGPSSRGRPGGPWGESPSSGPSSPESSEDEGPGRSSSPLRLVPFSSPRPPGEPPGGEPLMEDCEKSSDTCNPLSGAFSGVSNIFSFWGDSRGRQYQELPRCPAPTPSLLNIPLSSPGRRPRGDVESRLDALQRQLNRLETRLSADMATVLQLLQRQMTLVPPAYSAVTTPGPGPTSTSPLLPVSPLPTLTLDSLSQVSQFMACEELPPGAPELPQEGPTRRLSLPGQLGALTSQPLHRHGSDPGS
Protocol: The compounds were tested for inhibition of the human ether a go-go related gene (hERG) K+ channel using QPatch HTX automated electrophysiology.
Compounds of Formula I were solubilised to 100 mM in DMSO before dilution in HBPS to 300 μM.
Electrophysiological recordings were made from a Chinese Hamster Ovary cell line stably expressing the full-length hERG potassium channel. Single cell ionic currents were measured in whole-cell patch clamp configuration at room temperature (21-23° C.) using the QPatch HTX platform (Sophion). Intracellular solution contained (mM): 120 KF, 20 KCl, 10 EGTA, 10 HEPES and was buffered to pH 7.3. […] Cells were clamped at a holding potential of −80 mV. Cells were stepped to +20 mV for 2 s then −40 mV for 3 s before returning to the holding potential. This sweep was repeated 10 times at 10 s intervals. hERG currents were measured from the tail step and referenced to the holding current. Compounds were then incubated for 2 minutes prior to a second measurement of ion channel current using an identical pulse train.

[6] = system: Enterobacter cloacae ATCC 13047; experiment: MIC studies in LB Media; assay type: cell-based; conditions: ATCC13047, read-out: Minimum Inhibitory Concentration in LB Media, E. cl
Protocol: (§1) Bacterial cultures that were stored as glycerol stocks at −80° C. were sub cultured on LB agar plates to obtain isolated colonies. A single colony of each strain was cultured in LB broth. The cultures were incubated at 37° C., 200 rpm till they reach an optical density (OD at 600 nm) of 0.8 to 1. […] Test compounds were dissolved in dimethyl sulfoxide (DMSO) to a stock concentration of 4 mg/ml. A two-fold dilution series of this DMSO stock was prepared in a 96 well V bottom microtitre plate from rows A to H. A 3 μL volume of these dilutions were transferred to a 96-well flat bottom microtitre assay plate. Controls to monitor the effects of DMSO and media sterility were included. Each well was inoculated with 150 μL of the above diluted culture. The plates were incubated at 37° C. overnight in a humidified incubator. The following morning, the plates were read using a Spectrophotometer at 600 nm wavelength.

[7] = system: Citrobacter freundii ATCC 43864; experiment: MIC studies in LB Media; assay type: cell-based; conditions: ATCC43864, read-out: Minimum Inhibitory Concentration in LB Media, C. fr
Protocol: as §1

E. faecalis ATCC 29212 = experiment: MIC studies in LB Media; assay type: cell-based; conditions: Enterococcus faecalis, ATCC29212, read-out: Minimum Inhibitory Concentration in LB Media, E. fa
Protocol: as §1

E. coli ATCC 25922 = experiment: MIC studies in LB Media; assay type: cell-based; conditions: Escherichia coli, ATCC25922, read-out: Minimum Inhibitory Concentration in LB Media, E. co
Protocol: as §1

S. aureus ATCC 29213 = experiment: MIC studies in LB Media; assay type: cell-based; conditions: Staphylococcus aureus, ATCC29213, MIC = 90% inhibition of growth, read-out: Minimum Inhibitory Concentration in LB Media, S. au
Protocol: as §1

K. pneumoniae ATCC 13883 = experiment: MIC studies in LB Media; assay type: cell-based; conditions: Klebsiella pneumoniae, ATCC13883, read-out: Minimum Inhibitory Concentration in LB Media, K. pn
Protocol: as §1

[8] = system: Proteus mirabilis ATCC 43071; experiment: MIC studies in LB Media; assay type: cell-based; conditions: ATCC43071, read-out: Minimum Inhibitory Concentration in LB Media, P. mi
Protocol: as §1

A. baumannii ATCC 19606 = experiment: MIC studies in LB Media; assay type: cell-based; conditions: Acinetobacter baumannii, ATCC19606, read-out: Minimum Inhibitory Concentration in LB Media, A. ba
Protocol: as §1

[9] = system: Morganella morganii ATCC 25830; experiment: MIC studies in LB Media; assay type: cell-based; conditions: ATCC25830, read-out: Minimum Inhibitory Concentration in LB Media, M. mo
Protocol: as §1

P. aurigenosa ATCC 27853 = experiment: MIC studies in LB Media; assay type: cell-based; conditions: Pseudomonas aeruginosa, ATCC27853, read-out: Minimum Inhibitory Concentration in LB Media, P. ae
Protocol: as §1

E. coli DNA gyrase = E. coli DNA gyrase (Escherichia coli, UniProt P0AES4+P0AES6); experiment: biochemical; conditions: gel based supercoiling assay; read-out: E. coli DNA Gyrase IC50
Chain of E. coli DNA gyrase (P0AES4 whole entry, one chain of several): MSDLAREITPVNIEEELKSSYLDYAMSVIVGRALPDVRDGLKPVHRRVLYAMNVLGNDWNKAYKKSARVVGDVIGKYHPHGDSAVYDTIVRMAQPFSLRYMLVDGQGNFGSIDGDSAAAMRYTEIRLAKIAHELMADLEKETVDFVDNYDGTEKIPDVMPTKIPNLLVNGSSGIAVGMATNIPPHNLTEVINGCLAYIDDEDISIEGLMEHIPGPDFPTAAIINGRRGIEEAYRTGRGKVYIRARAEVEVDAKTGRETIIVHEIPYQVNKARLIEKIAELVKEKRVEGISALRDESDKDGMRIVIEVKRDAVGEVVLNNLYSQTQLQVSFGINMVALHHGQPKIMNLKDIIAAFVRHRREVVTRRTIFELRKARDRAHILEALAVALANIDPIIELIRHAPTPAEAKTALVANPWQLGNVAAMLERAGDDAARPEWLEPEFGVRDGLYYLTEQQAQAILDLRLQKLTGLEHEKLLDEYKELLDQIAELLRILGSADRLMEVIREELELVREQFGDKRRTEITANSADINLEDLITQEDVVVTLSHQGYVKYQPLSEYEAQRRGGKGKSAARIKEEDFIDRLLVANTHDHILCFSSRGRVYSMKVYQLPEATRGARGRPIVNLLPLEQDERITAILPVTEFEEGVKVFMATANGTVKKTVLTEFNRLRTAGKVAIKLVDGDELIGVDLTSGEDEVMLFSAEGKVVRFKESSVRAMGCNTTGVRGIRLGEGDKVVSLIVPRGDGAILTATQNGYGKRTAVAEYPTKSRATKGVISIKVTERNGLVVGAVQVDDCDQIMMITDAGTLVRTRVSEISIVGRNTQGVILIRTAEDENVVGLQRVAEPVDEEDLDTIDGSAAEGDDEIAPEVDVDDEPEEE

[10] = individual animals, 24 h post infection
[11] = Escherichia coli, E. coli clinical strains
[12] = Klebsiella pneumoniae, Kpn clinical strains

C[C@@H](O)[C@H]1C(=O)N2C(C(=O)O)=C(S[C@@H]3CN[C@H](C(=O)N(C)C)C3)[C@H](C)[C@H]12 [Meropenem, meropenem, reference compound]
MEAN ± SD (Log10 CFU/g kidneys) (E. coli [ATCC25922]): 3.83 ± 0.27 Log10 CFU/g kidneys
MEAN ± SD (Log10 CFU/ml Bladder) (E. coli [ATCC25922]): 4.69 ± 0.32 Log10 CFU/ml Bladder
Mean Log10CFU/g kidney reduction (wrt 4 h PI control: 4.53 Log10CFU/g kidneys) (E. coli [ATCC25922]): 0.70 Log10CFU/g kidney
Mean Log10 CFU/ml Bladder reduction (wrt 4 h PI control: 5.72 CFU/ml Bladder) (E. coli [ATCC25922]): 1.03 Log10 CFU/ml Bladder
Log10 CFU/g (Left Kidney) (E. coli [ATCC25922]; [10]): 3.61 Log10 CFU/g and 3.92 Log10 CFU/g and 4.06 Log10 CFU/g
Log10 CFU/g (Right Kidney) (E. coli [ATCC25922]; [10]): 3.41 Log10 CFU/g and 4.12 Log10 CFU/g and 3.87 Log10 CFU/g
Log10 CFU/ml Bladder (E. coli [ATCC25922]; [10]): 4.87 Log10 CFU/ml Bladder and 4.33 Log10 CFU/ml Bladder and 4.89 Log10 CFU/ml Bladder
Minimum (MIC) (E. coli clinical strains; E. coli clinical strains, MIC50/MIC90 in μg/ml): 0.03 µg/mL
MIC ATCC25922 (E. coli clinical strains; E. coli reference strain ATCC25922, MIC50/MIC90 in μg/ml): 0.06 µg/mL (≈ 0.156 µM)
MIC50 (E. coli clinical strains; [11]): 0.06 µg/mL (≈ 0.156 µM)
MIC90 (E. coli clinical strains; [11]): 4 µg/mL (≈ 10.4 µM)
MEAN ± SD (Log10 CFU/g Lung) [1]: 5.43 ± 0.14 Log10 CFU/g Lung
Mean Log 10 CFU/g lung reduction (wrt 4 h PI control: 6.52 Log10CFU/g lung) [1]: 1.09 Log 10 CFU/g lung
Log10 CFU/g Lung [1, 10]: 5.35 Log10 CFU/g Lung and 5.36 Log10 CFU/g Lung and 5.59 Log10 CFU/g Lung
Minimum (MIC) ([2]; MIC50/MIC90 in μg/ml): 0.06 µg/mL
MIC50 ([2]; Enterobacter cloacae): 0.25 µg/mL (≈ 0.652 µM)
MIC90 ([2]; Enterobacter cloacae): 16 µg/mL (≈ 41.7 µM)
MIC50 [3, 12]: 1 µg/mL (≈ 2.61 µM)
MIC90 [3, 12]: 16 µg/mL (≈ 41.7 µM)
Minimum (MIC) ([3]; Kpn clinical strains, MIC50/MIC90 in μg/ml): 0.03 µg/mL
MIC ATCC13883 ([3]; Kpn reference strain ATCC13883, MIC50/MIC90 in μg/ml): 0.06 µg/mL (≈ 0.156 µM)
MIC50 ([4]; Pae clinical strains): 2 µg/mL (≈ 5.22 µM)
MIC90 ([4]; Pae clinical strains): 8 µg/mL (≈ 20.9 µM)
Minimum (MIC) ([4]; Pae clinical strains, MIC50/MIC90 in μg/ml): 0.03 µg/mL
MIC ATCC27853 ([4]; Pae reference strain ATCC27853, MIC50/MIC90 in μg/ml): 0.5 µg/mL (≈ 1.3 µM)
MIC50 ([5]; Aba clinical strains): 8 µg/mL (≈ 20.9 µM)
MIC90 ([5]; Aba clinical strains): 32 µg/mL (≈ 83.4 µM)
Minimum (MIC) ([5]; Aba clinical strains, MIC50/MIC90 in μg/ml, in µg/mL): 0.03125
MIC ATCC19606 ([5]; Aba reference strain ATCC19606, MIC50/MIC90 in μg/ml): 0.5 µg/mL (≈ 1.3 µM)

Cn1c(=O)ccc2nccc(OCCNC[C@H]3CN(c4ccc5c(n4)NC(=O)CO5)C(=O)O3)c21 [Compound 1, (S)-6-(5-(((2-((5-methyl-6-oxo-5,6-dihydro-1,5-naphthyridin-4-yl)oxy)ethyl)amino)methyl)-2-oxooxazolidin-3-yl)-2H-pyrido[3,2-b][1,4]oxazin-3(4H)-one]
IC50 (E. coli topoisomerase IV): < 250 nM
IC50 (hERG potassium channel): > 100000 nM
MIC [6]: 8 µg/mL (≈ 17.2 µM)
MIC [7]: 1 µg/mL (≈ 2.14 µM)
MIC (E. faecalis ATCC 29212): 1 µg/mL (≈ 2.14 µM)
MIC (E. coli ATCC 25922): 0.5 µg/mL (≈ 1.07 µM)
MIC (S. aureus ATCC 29213): 0.25 µg/mL (≈ 0.536 µM)
MIC (K. pneumoniae ATCC 13883): 1 µg/mL (≈ 2.14 µM)
MIC [8]: 16 µg/mL (≈ 34.3 µM)
MIC (A. baumannii ATCC 19606): 2 µg/mL (≈ 4.29 µM)
MIC [9]: 2 µg/mL (≈ 4.29 µM)
MIC (P. aurigenosa ATCC 27853): 4 µg/mL (≈ 8.58 µM)
IC50 (E. coli DNA gyrase): < 250 nM

Cn1c(=O)cnc2ccc(F)c(OCCNC[C@H]3CN(c4cnc5c(n4)NC(=O)CO5)C(=O)O3)c21 [Compound 7, (S)-6-(5-(((2-((6-fluoro-4-methyl-3-oxo-3,4-dihydroquinoxalin-5-yl)oxy)ethyl)amino)methyl)-2-oxooxazolidin-3-yl)-2H-pyrazino[2,3-b][1,4]oxazin-3(4H)-one]
IC50 (E. coli topoisomerase IV): < 220 nM
IC50 (hERG potassium channel): > 300000 nM
MIC [6]: 0.125 µg/mL (≈ 0.258 µM)
MIC [7]: 0.06 µg/mL (≈ 0.124 µM)
MIC (E. faecalis ATCC 29212): 0.06 µg/mL (≈ 0.124 µM)
MIC (E. coli ATCC 25922): 0.03 µg/mL (≈ 0.0618 µM)
MIC (S. aureus ATCC 29213): ≤ 0.015 µg/mL
MIC (K. pneumoniae ATCC 13883): 0.06 µg/mL (≈ 0.124 µM)
MIC [8]: 0.25 µg/mL (≈ 0.515 µM)
MIC (A. baumannii ATCC 19606): 0.06 µg/mL (≈ 0.124 µM)
MIC [9]: 0.06 µg/mL (≈ 0.124 µM)
MIC (P. aurigenosa ATCC 27853): 0.25 µg/mL (≈ 0.515 µM)
IC50 (E. coli DNA gyrase): 15 nM
